pIC50: −log10 of the molar value.

In this experiment the target is prostate-specific membrane antigen (PSMA) (Homo sapiens, UniProt Q04609). In words: HPLC-based inhibition assay of purified PSMA with PABGγG substrate. It is filed as biochemical.
Chain of prostate-specific membrane antigen (PSMA) (Q04609 whole entry): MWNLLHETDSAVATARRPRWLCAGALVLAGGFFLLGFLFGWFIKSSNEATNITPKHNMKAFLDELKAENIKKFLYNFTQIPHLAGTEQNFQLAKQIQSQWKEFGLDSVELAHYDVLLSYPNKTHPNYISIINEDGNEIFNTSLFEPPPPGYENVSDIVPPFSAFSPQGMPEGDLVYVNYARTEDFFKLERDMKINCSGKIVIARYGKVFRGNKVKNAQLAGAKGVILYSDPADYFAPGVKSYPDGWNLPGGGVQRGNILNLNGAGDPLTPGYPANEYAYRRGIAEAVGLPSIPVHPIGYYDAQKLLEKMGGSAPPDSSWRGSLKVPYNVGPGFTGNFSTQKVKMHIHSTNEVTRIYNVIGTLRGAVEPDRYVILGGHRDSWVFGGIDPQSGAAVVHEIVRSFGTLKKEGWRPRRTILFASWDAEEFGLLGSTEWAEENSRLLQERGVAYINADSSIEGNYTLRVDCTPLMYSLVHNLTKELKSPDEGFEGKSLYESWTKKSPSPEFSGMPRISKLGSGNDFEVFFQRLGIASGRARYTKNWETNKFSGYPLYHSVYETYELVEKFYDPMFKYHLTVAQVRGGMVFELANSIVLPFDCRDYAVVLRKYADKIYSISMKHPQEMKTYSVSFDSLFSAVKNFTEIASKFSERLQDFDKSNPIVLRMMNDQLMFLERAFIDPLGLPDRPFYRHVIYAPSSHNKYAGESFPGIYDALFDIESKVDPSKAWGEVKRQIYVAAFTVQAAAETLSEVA

In general, pIC50 refers to −log10 of the IC50, conventionally taken in molar units. High values mean a small IC50, low ones a large IC50. Regarding biotin-PEG12-CTT-54, the pIC50 is 8.00.

The record behind these values is publication PMC3410962 (2012).
